Source: patent publication US20200375987A1, “METALLO-BETA-LACTAMASE INHIBITORS AND METHODS OF USE THEREOF” (priority 2018, published 2020)
pIC50: −log10 of the molar value.

What was measured:
NDM-1 = NDM-1 (Klebsiella pneumoniae, UniProt C7C422); test: Enzyme activity: determination of IC50, fluorescence assay with CCF2-FA substrate (NDM-1); type: biochemical; conditions: 1 pM enzyme, 1.25 μM CCF2-FA, 2 hours at 25° C.; read-out: NDM1 IC50
Method: (§1) The Class B enzyme activities were measured in the presence of the test inhibitor in a fluorescence assay against a commercially available substrate consisting of a cephalosporin core linking 7-hydroxycoumarin to fluorescein (CCF2-FA). The enzyme (NDM-1, IMP-1 or VIM-1) and the substrate were diluted in 100 mM KH2PO4 buffer (pH 7) containing 0.005% Tween-20 and 10 μM ZnSO4. In the assay, the final concentration of enzyme was 1 pM, 2 pM and 30 pM for NDM-1, IMP-1 and VIM-1, respectively, and the final concentration of CCF2-FA was 1.25 μM. The test inhibitor was dissolved in dimethylsulfoxide and diluted 1:50 in the assay, resulting in a final concentration range of 20 μM to 0.00063 μM. In a 384-well microplate, the test inhibitor was incubated with the metallo-β-lactamase enzyme and the substrate for 2 hours at 25° C. Fluorescence at 460 nm following excitation at 405 nm was measured. The IC50 value was determined from semi-logarithmic plots of enzyme inhibition versus inhibitor concentration, with a curve generated using a 4-parameter fit.

IMP-1 = IMP-1 (Serratia marcescens, UniProt P52699); test: Enzyme activity: determination of IC50, fluorescence assay with CCF2-FA substrate (IMP-1); type: biochemical; conditions: 2 pM enzyme, 1.25 μM CCF2-FA, 2 hours at 25° C.; read-out: IMP1 IC50
Chain of IMP-1 (P52699 19-246, looked up, species assumed): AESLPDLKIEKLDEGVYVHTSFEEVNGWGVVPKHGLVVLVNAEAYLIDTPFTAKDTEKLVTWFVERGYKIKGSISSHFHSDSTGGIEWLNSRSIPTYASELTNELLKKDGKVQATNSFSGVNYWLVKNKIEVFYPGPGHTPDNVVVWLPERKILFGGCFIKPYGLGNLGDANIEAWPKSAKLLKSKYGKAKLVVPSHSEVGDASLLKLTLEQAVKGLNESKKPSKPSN
Method: as §1

VIM-1 = VIM-1 (Pseudomonas aeruginosa, UniProt A0A0F7KYQ8); test: Enzyme activity: determination of IC50, fluorescence assay with CCF2-FA substrate (VIM-1); type: biochemical; conditions: 30 pM enzyme, 1.25 μM CCF2-FA, 2 hours at 25° C.; read-out: VIM1 IC50
Method: as §1

VIM-2 = VIM-2 (Escherichia coli, UniProt Q5U7L7); test: Enzyme activity: determination of IC50 (VIM-2); type: biochemical; conditions: read-out: VIM2 IC50
[1] = test system: Escherichia coli expressing NDM-1 (CLB30016); test: Antibiotic potentiation activity: synergistic concentration (MITC95) with imipenem; type: cell-based; conditions: imipenem 1 μg/mL; lowest concentration inhibiting 95% of growth; 35° C., 22-24 hours
Method: (§2) The bacterial strains tested included the clinical strains Escherichia coli expressing NDM-1 (CLB30005, CLB30016), Serratia marcescens expressing IMP-1 (CL5741), and Klebsiella pneumoniae expressing VIM-1 (IHMA599644). Inhibitor activity was measured in the presence and absence of imipenem in a 384-well microplate.
(§3) The clinical strains CLB30016, CL5741 and IHMA599644 were grown on trypticase soy agar containing 5% sheep's blood. The bacteria on agar plates were incubated at 35° C. with humidity overnight. The following day, individual colonies from each clinical strain were picked and resuspended in 5 mL saline to attain an OD600 of 0.14, 0.11, 0.15 and 0.13, for CLB30016, CL5741 and IHMA599644, respectively. These were further diluted 1:100 into 1.1× CAMHB and used to inoculate the test wells as described below.
(§4) Imipenem in 10 mM 3-(N-morpholino)propanesulfonic acid (MOPS, pH 7) was stored in single use aliquots at −80° C. […] On the day of the assay, 4 μl of antibiotic was added to 45 μl of bacteria followed by 1 μl of test compound and mixed by pipetting and with an orbital shaker. The concentration of antibiotic used in the assay was 1 μg/mL. Microplates were covered and incubated at 35° C. for 22 hours to 24 hours. At the end of the incubation, absorbance was determined using a spectrophotometer. The synergistic concentration of MBLI was determined by identifying the lowest concentration of test compound in the presence of a given concentration of antibiotic that was required to inhibit 95% of the growth of the bacteria. The results for Examples 1-209 are reported in Table 1, expressed as the concentration of compound that potentiated the action of antibiotic (imipenem) affecting 95% inhibition of bacterial growth (MITC95).

[2] = test system: Klebsiella pneumoniae expressing VIM-1 (IHMA599644); test: as above; type: cell-based; conditions: imipenem 1 μg/mL; lowest concentration inhibiting 95% of growth; 35° C., 22-24 hours
Method: as §2, §3, §4

[3] = test system: Serratia marcescens expressing IMP-1 (CL5741); test: as above; type: cell-based; conditions: imipenem 1 μg/mL; lowest concentration inhibiting 95% of growth; 35° C., 22-24 hours
Method: as §2, §3, §4

[4] = test system: P. aeruginosa MB9798 (efflux WT, IMP-1); test: Efflux: concentration of MBL inhibitor restoring susceptibility to imipenem (MITC95), efflux+ strain; type: cell-based, Pseudomonas aeruginosa; conditions: imipenem at 2 μg/mL in the presence of a class A, C, D serine β-lactamase inhibitor closely related to relebactam
From the text: (§5) In order to assess the contribution of efflux to lack of whole cell inhibition of metallo-beta-lactamase inhibitors of formula I, tool strains were constructed. The strain background is Pseudomonas aeruginosa PAO1. A wild-type (MB5919) and an isogenic strain in which multiple efflux pumps have been disrupted genetically were used. The MBL IMP-1, obtained from a clinical isolate was introduced into the strain pair by the following process:
(§6) Plasmid DNA (encoding IMP-1) was extracted from CL 5673 (IMP-1, P. aeruginosa clinical strain) by standard techniques. The plasmid DNA was transformed into parental MB5919 (oprD+, efflux+, inducible AmpC) and MB5890 (oprD+, efflux−, inducible AmpC) isogenic strains by electroporation. These transformed strains were plated onto cation-adjusted Muller-Hinton agar plates containing ceftazidime at 32 μg/mL (MB5919) and 16 μg/mL (MB5890) to select for those cells in which the IMP-1-expressing plasmid was introduced successfully, resulting in resistance to ceftazidime. Agarose-gel electrophoresis of PCR product for IMP-1 from the successful transformants was used to compare to control and to the original strain from which the plasmid was obtained, confirming transfer of the IMP-1 gene (data not shown).
(§7) The strain set was then used as a pair to determine the effect of metallo-β-lactamase inhibitors of Formula Ion the MIC of imipenem and/or ceftazidime. A fixed concentration of antibiotic is included in standard microbroth MIC tests, usually at the CLSI breakpoint concentration. A fixed amount of a class A/C beta-lactamase inhibitor is also included to inhibit the resident Pseudomonas AmpC enzyme. A serial titration of the metallo-β-lactamase inhibitor was included and the concentration of metallo-β-lactamase inhibitor which restores susceptibility of the strain to the included antibiotic was recorded. That concentration of metallo-β-lactamase inhibitor was then compared between the two strains to determine the fold difference between the efflux+(MB9798) and efflux−(MB9799) strains, which indicates n the extent to which the MBLi is subject to efflux.

[5] = test system: P. aeruginosa MB9799 (efflux mutant, IMP-1); test: Efflux: concentration of MBL inhibitor restoring susceptibility to imipenem (MITC95), efflux− strain; type: cell-based, Pseudomonas aeruginosa; conditions: imipenem at 2 μg/mL in the presence of a class A, C, D serine β-lactamase inhibitor closely related to relebactam
From the text: as §5, §6, §7

Chain of NDM-1 (C7C422 29-270, looked up, species assumed): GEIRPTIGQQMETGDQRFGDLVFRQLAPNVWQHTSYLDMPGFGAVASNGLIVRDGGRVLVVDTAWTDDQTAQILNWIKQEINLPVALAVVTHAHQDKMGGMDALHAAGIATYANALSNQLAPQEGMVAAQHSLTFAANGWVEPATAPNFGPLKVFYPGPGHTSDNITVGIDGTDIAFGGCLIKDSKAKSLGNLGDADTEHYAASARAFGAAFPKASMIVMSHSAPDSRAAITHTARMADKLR

SMILES	pIC50 (NDM-1)	pIC50 (IMP-1)	pIC50 (VIM-1)	pIC50 (VIM-2)	CLB30016 E.coli MITC95 NDM [1]	IHMA599644 K.pneumoniae MITC95 uM VIM [2]	CL5741 S.marcescens MITC95 uM IMP [3]	MB9798 MITC95 P. aeruginosa Efflux WT [4]	MB9799 MITC95 P. aeruginosa Efflux Mutant [5]
NC[C@@H](O)CNS(=O)(=O)c1ccc(N2CC[C@H](CO)n3ccnc32)c(-c2nn[nH]n2)c1S(N)(=O)=O [Example 40, N1-((R)-3-amino-2-hydroxypropyl)-4-((R)-5-(hydroxymethyl)-6,7-dihydroimidazo[1,2-a]pyrimidin-8(5H)-yl)-3-(2H-tetrazol-5-yl)benzene-1,2-disulfonamide]	8.94	8.30	9.57	8.68	0.10 µM	1.56 µM	0.39 µM	1.56 µM	0.78 µM
NS(=O)(=O)c1c(S(=O)(=O)N[C@@H]2CCNC2)ccc(N2CCn3ncnc3C2)c1-c1nn[nH]n1 [Example 1, (R)-4-(5,6-dihydro-[1,2,4]triazolo[1,5-a]pyrazin-7(8H)-yl)-N′-(pyrrolidin-3-yl)-3-(2H-tetrazol-5-yl)benzene-1,2-disulfonamide]	8.80	8.39	9.54	9.00	3.13 µM	6.25 µM	1.56 µM	6.25 µM	1.56 µM
Cc1cc2c(c(C)n1)CCN2c1ccc(S(=O)(=O)N[C@@H]2CCNC2)c(S(N)(=O)=O)c1-c1nnn[nH]1 [Example 27, 4-(4,6-dimethyl-2,3-dihydro-1H-pyrrolo[3,2-c]pyridin-1-yl)-N1-[(3R)-pyrrolidin-3-yl]-3-(1H-tetrazol-5-yl)benzene-1,2-disulfonamide]	8.30	7.08	9.85	8.86	1.56 µM	3.13 µM	6.25 µM	50.00 µM	3.13 µM
NCC(CN)NS(=O)(=O)c1ccc(N2CCCn3ccnc32)c(-c2nn[nH]n2)c1S(N)(=O)=O [Example 11, N1-(1,3-diaminopropan-2-yl)-4-(6,7-dihydroimidazo[1,2-a]pyrimidin-8(5H)-yl)-3-(2H-tetrazol-5-yl)benzene-1,2-disulfonamide]	8.71	8.34	8.90	8.43	0.20 µM	1.56 µM	0.78 µM	2.34 µM	1.17 µM
NS(=O)(=O)c1c(S(=O)(=O)N[C@@H]2CCNC2)ccc(N2CCCc3ccncc32)c1-c1nnn[nH]1 [Example 21, 4-(3,4-dihydro-1,7-naphthyridin-1(2H)-yl)-N1-[(3R)-pyrrolidin-3-yl]-3-(1H-tetrazol-5-yl)benzene-1,2-disulfonamide]	9.68	8.61	9.66	8.91	0.20 µM	6.25 µM	0.78 µM	3.13 µM	1.56 µM
NS(=O)(=O)c1c(S(=O)(=O)N[C@@H]2CCNC2)ccc(N2CCc3[nH]cnc3C2)c1-c1nnn[nH]1 [Example 31, N1-[(3R)-pyrrolidin-3-yl]-4-(1,4,6,7-tetrahydro-5H-imidazo[4,5-c]pyridin-5-yl)-3-(1H-tetrazol-5-yl)benzene-1,2-disulfonamide]	8.95	8.15	9.23	8.48	0.20 µM	3.13 µM	0.78 µM	3.13 µM	0.78 µM
NC[C@@H](O)CNS(=O)(=O)c1ccc(N2CCc3cccnc32)c(-c2nn[nH]n2)c1S(N)(=O)=O [Example 36, (R)—N1-(3-amino-2-hydroxypropyl)-4-(2,3-dihydro-1H-pyrrolo [2,3-b]pyridin-1-yl)-3-(2H-tetrazol-5-yl)benzene-1,2-disulfonamide]	9.44	8.85	9.57	9.31	1.56 µM	3.13 µM	1.56 µM	12.50 µM	0.78 µM
NS(=O)(=O)c1c(S(=O)(=O)N[C@@H]2CCNC2)ccc(N2CCCn3ncnc32)c1-c1nnn[nH]1 [Example 8, (R)-4-(6,7-dihydro-[1,2,4]triazolo[1,5-a]pyrimidin-4(5H)-yl)-N1-(pyrrolidin-3-yl)-3-(1H-tetrazol-5-yl)benzene-1,2-disulfonamide]	9.33	8.18	9.70	8.96	3.13 µM	12.50 µM	6.25 µM	3.13 µM	6.25 µM
NS(=O)(=O)c1c(S(=O)(=O)N[C@@H]2CCNC2)ccc(N2CCn3ccnc3C2)c1-c1nnn[nH]1 [Example 9, (R)-4-(5,6-dihydroimidazo[1,2-a]pyrazin-7(8H)-yl)-N1-(pyrrolidin-3-yl)-3-(1H-tetrazol-5-yl)benzene-12-disulfonamide]	9.32	8.66	10.00	9.31	0.39 µM	1.56 µM	0.20 µM	1.56 µM	0.78 µM
